Values joined by “and” are separate entries in the source; they are usually repeats but may differ in a detail not shown here. Equal values may be shown once.
Experiments:
Mycobacterium 607 = assay: Inhibition of Dihydropteroate synthase of Mycobacterium 607 and log (1/MIC) was reported
[1] = target: T1, Dihydropteroate synthase (Escherichia coli K-12) (UniProt P0AC13); assay: Inhibition of dihydropteroate synthase of Escherichia coli
T1 sequence (whole entry): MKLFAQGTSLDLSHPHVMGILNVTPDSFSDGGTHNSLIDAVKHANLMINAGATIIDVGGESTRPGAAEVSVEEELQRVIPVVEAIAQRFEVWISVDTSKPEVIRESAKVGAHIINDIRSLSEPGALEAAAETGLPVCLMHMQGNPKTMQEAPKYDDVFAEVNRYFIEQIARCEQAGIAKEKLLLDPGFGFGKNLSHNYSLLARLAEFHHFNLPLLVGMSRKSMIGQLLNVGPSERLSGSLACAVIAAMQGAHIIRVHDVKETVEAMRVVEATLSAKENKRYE

[2] = pKa value by spectrophotometrically at pH 8.2 (for mono ionic form); format: physicochemical; details: read-out: pKa1
[3] = pKa value by spectrophotometrically at pH 8.2 (for di ionic form ); format: physicochemical; details: read-out: pKa2
[4] = pKa value by spectrophotometrically at pH 8.2; format: physicochemical
[5] = pKa value was determined by spectrophotometrically at pH 8.2 (for di ionic form ); format: physicochemical; details: read-out: pKa2

Log 1/MIC (Mycobacterium 607) | EII50 [1] | SMILES | other results
4.62 | 6.04 | Nc1ccc(S(=O)(=O)c2cccc(N)c2)cc1 | 
 | 12.9 | COc1cc(OC)c(S(=O)(=O)c2ccc(N)cc2)c(OC)c1 | 
 | 2.24 | Nc1ccc(S(=O)(=O)c2ccc(Cl)cc2Cl)cc1 | 
4.26 | 4.53 | CCNc1ccc(S(=O)(=O)c2ccc(N)cc2)cc1 | 
4.46 | 4.53 | Nc1ccc(S(=O)(=O)c2ccc(NO)cc2)cc1 | 
4.35 | 2.27 | Nc1ccc(S(=O)(=O)c2ccccc2N)cc1 | 
 | 6.04 | Cc1ccc(S(=O)(=O)c2ccc(N)cc2)cc1 | 
 | 67.3 | N#Cc1ccc(S(=O)(=O)c2ccc(N)cc2)cc1 | 
5.96 | 1.5 and 2.45 | Nc1ccc(S(=O)(=O)c2ccc(O)cc2)cc1 | 
 | 22.6 | NC(=O)c1ccc(S(=O)(=O)c2ccc(N)cc2)cc1 | 
3.36 | 45.3 | Nc1ccc(S(=O)(=O)c2ccc([N+](=O)[O-])cc2)cc1 | 
 | 49.1 | CCN(CC)C(=O)c1ccc(S(=O)(=O)c2ccc(N)cc2)cc1 | 
4.02 | 6.6 | COc1ccc(S(=O)(=O)c2ccc(N)cc2)cc1 | 
 | 3.63 | CN(C)c1ccc(S(=O)(=O)c2ccc(N)cc2)cc1 | 
 | 1.46 and 1.91 | Nc1ccc(S(=O)(=O)c2c(O)cc(O)cc2O)cc1 | pKa [2]: 7.69; pKa [3]: 9.62
4.74 | 5.79 | Nc1ccc(S(=O)(=O)c2ccc(NC=O)cc2)cc1 | 
 | 20.8 | Nc1ccc(S(=O)(=O)c2ccc(Cl)cc2)cc1 | 

Log 1/MIC (Mycobacterium 607) | EII50 [1] | SMILES | other results
 | 1.89 | Cc1ccc(S(=O)(=O)c2ccc(N)cc2)c(C)c1 | 
 | 1.69 | Cc1cc(C)c(S(=O)(=O)c2ccc(N)cc2)c(C)c1 | 
 | 36.3 | Nc1ccc(S(=O)(=O)c2ccc([N+](=O)[O-])cc2[N+](=O)[O-])cc1 | 
 | 2.64 | CCN(CC)c1ccc(S(=O)(=O)c2ccc(N)cc2)cc1 | 
 | 5.75 | CC(=O)Nc1ccc(S(=O)(=O)c2ccc(N)cc2)cc1 | 
 | 2.64 | Nc1ccc(S(=O)(=O)c2ccc(N)cc2)cc1 | 
 | 9.56 | Nc1ccc(S(=O)(=O)c2ccccc2)cc1 | 
3.59 | 11.1 | Nc1ccc(S(=O)(=O)c2ccc(Br)cc2)cc1 | 
 | 34 | COC(=O)c1ccc(S(=O)(=O)c2ccc(N)cc2)cc1 | 
 | 3.21 | COc1ccc(S(=O)(=O)c2ccc(N)cc2)c(OC)c1 | 
 | 43.4 | CC(=O)c1ccc(S(=O)(=O)c2ccc(N)cc2)cc1 | 
 | 5.09 | Nc1ccc(S(=O)(=O)c2ccc(C(=O)O)cc2)cc1 | pKa [4]: 3.6
 | 3.31 | Nc1ccc(S(=O)(=O)c2c(Cl)cc(Cl)cc2Cl)cc1 | 
3.5 | 18.1 | Nc1ccc(S(=O)(=O)c2ccc(F)cc2)cc1 | 
 | 1.59 | Nc1ccc(S(=O)(=O)c2ccc(N)cc2N)cc1 | 
 | 0.71 | Nc1ccc(S(=O)(=O)c2ccc(O)cc2O)cc1 | pKa [2]: 7.67; pKa [5]: 10.1

From ChEMBL document CHEMBL1123689, “Quantitative structure-activity analysis in dihydropteroate synthase inhibition by sulfones. Comparison with sulfanilamides” (J Med Chem, 1987)
